≈ marks a conversion by molar mass, not a printed value.
Experiments:
Format in all cases: in vivo
[1] = test system: 3rd-instar larvae of Agrotis ipsilon (Rottemberg); test: Joint toxicity of I-72 + SYP-1620, fludioxonil, insect-dipping, Example 80, Table 80
Procedure: (§1) Preparation of the pesticide solution: according to different test requirements, the test samples were accurately weighed respectively with an electronic analytical balance. The technical pesticides were dissolved in acetone, and then diluted with 0.1% Tween 80 water into a series of pesticide solutions with a certain concentration gradient according to the experimental design dosage.
(§2) The target insects were dipped into the pesticide solution for 10 s and then taken out. Excess pesticide solution was absorbed with filter paper. […] A treatment without the pesticide was set as the blank control.
(§3) The number of dead and live insects was investigated 72 hours later. The corrected mortality rate was calculated using the Abbott's formula, and statistical analysis was performed with the DPS data processing software to obtain the toxicity regression equation and LC50 value of each single test pesticide and each mixture of different ratios.

[2] = test system: Unaspis yanonensis Kuwana nymphs; test: Joint toxicity of I-72 + afidopyropen, Example 76, Table 76; conditions: A = compound I-72, B = afidopyropen; citrus leaf dipping; 120 hours
Procedure: Test target: Unaspis yanonensis Kuwana nymphs.
as §1
Experimental method: the activity of the mixture against Unaspis yanonensis Kuwana nymphs on citrus was determined by adopting the dipping method. First, the collected citrus leaves with Unaspis yanonensis Kuwana nymphs were treated with the pesticide solution in the order from low dosage to high dosage according to the experimental design. After air-drying, the petioles were kept moist with degreased cotton, and then the leaves were placed in a Petri dish, with 3 replicates for each treatment. In addition, a blank control was set up.
(§4) The treated test materials were placed in an observation room, and the temperature, humidity and illumination of the observation room could be adjusted as needed. The number of dead and live insects was investigated 120 hours later. […] Then, the co-toxicity coefficient of each ratio was calculated using the Sun Y-P method to evaluate the mixing effect (the same as in Example 1).

[3] = test system: adult Tetranychus urticae Koch; test: Joint toxicity of I-72 + cyetpyrafen, Example 85, Table 85; conditions: A = compound I72, B = cyetpyrafen; potted-seedling spraying; 72 hours
Procedure: Test target: adult Tetranychus urticae Koch, a sensitive strain reared indoors.
as §1
(§5) Experimental method: the activity of the mixture against the adult Tetranychus urticae Koch was determined by adopting the potted-seedling spraying method. First, the adult Tetranychus urticae Koch of uniform size were transferred onto the leaves of kidney bean seedlings at the stage when the first pair of true leaves was fully expanded. After the adult mites had stabilized, the base number was counted. Then, the uniform spraying was performed with the pesticide solution in the order from low to high dose according to the experimental design, with 1.5 mL for each seedling and 3 replicates for each treatment. […]
as §4, with “needed.” for “needed. The number of dead and live insects was investigated 120 hours later.”

[4] = test system: Thrips flavus Schrank nymphs; test: Joint toxicity of I-72 + flonicamid, Example 78, Table 78; conditions: A = compound I-72, B = flonicamid; eggplant seedling spraying; 48 hours
Procedure: Test target: Thrips flavus Schrank nymphs.
as §1
Experimental method: first, eggplant seedlings with Thrips flavus Schrank were selected, and the base number was counted. Then, uniform spraying was performed with the pesticide solution in the order from low to high doses according to the experimental design, with 2 mL for each seedling and 3 replicates for each treatment. In addition, a blank control was set up.
as §4, with “48” for “120”

[5] = test system: Aphis gossypii Glover nymphs; test: Joint toxicity of I-72 + flonicamid, Example 74, Table 74; conditions: A = compound I-72, B = flonicamid; cotton leaf spraying; 48 hours
Procedure: Test target: Aphis gossypii Glover nymphs, a sensitive strain reared indoors.
as §1
(§6) Experimental method: first, cotton leaves with uniform and consistent Aphis gossypii were selected, with about 30-40 insects on each leaf. Then, they were evenly sprayed with the pesticide solution in the order from low dosage to high dosage according to the experimental design, with 1.5 mL for each leaf and 3 replicates for each treatment. In addition, a blank control was set up.
as §4, with “48” for “120”

[6] = test system: Nilaparvata lugens (Stal) nymphs; test: Joint toxicity of I-72 + imidacloprid, Example 70, Table 70; conditions: 72 h
Procedure: (§7) Test target: Nilaparvata lugens (Stal) nymphs, a sensitive strain reared indoors.
as §1
(§8) Experimental method: the activity of the mixture against the Nilaparvata lugens (Stal) nymphs was determined by adopting the potted-seedling spraying method. First, rice seedlings were planted in culture pots. Uniform spraying was performed with the pesticide solution in the order from low dosage to high dosage according to the experimental design, with 2 mL for each seedling. Then, Nilaparvata lugens nymphs of uniform size were transferred onto the rice seedlings, with 3 replicates for each treatment. In addition, a blank control was set up.
as §4, with “72” for “120”

[7] = test system: 3rd-instar larvae of Agrotis ipsilon (Rottemberg); test: whole plant or invertebrate; conditions: A = compound I-72, B = metalaxyl-M; insect-dipping; 72 hours
Procedure: Test conditions: temperature: 24-26° C., humidity: RH 60%, and illumination: L:D=14:10
as §1, §2, §3

[8] = test system: Aphis citricola van der Goot nymphs; test: Joint toxicity of I-72 + nicotine, Example 72, Table 72; conditions: A = compound I-72, B = nicotine, apple leaf spraying, 48 hours
Procedure: Test target: Aphis citricola van der Goot nymphs.
as §1
as §6, with “apple” for “cotton”, “citricola van der Goot” for “gossypii”
as §4, with “48” for “120”

[9] = test system: Myzus persicae (Sulzer) nymphs; test: Joint toxicity of I-72 + pymetrozine, Example 73, Table 73; conditions: in Brassica oleracea, 48 h
Procedure: Test target: Myzus persicae (Sulzer) nymphs, a sensitive strain reared indoors.
as §1
as §6, with “cabbage” for “cotton”, “Myzus persicae (Sulzer)” for “Aphis gossypii”, “mL of the solution” for “mL”
as §4, with “48” for “120”, “effect,” for “effect (the same”, “1.” for “1).”

[10] = test system: 3rd-instar larvae of Ostrinia furnacalis Guenee; test: Joint toxicity of I-72 + pymetrozine, Example 79, Table 79; conditions: in Zea mays, 72 h
Procedure: Test target: 3rd-instar larvae of Ostrinia furnacalis Guenee.
as §1
Experimental method: first, tender corn stems were selected and dipped in the prepared pesticide solution for 10 s in the order from low dosage to high dosage according to the experimental design. After natural air-drying in the shade, they were placed in a 9-cm-diameter Petri dish with filter paper, and uniform and healthy test insects were introduced, with 10 insects for each treatment and 3 replicates for each treatment. In addition, a blank control was set up.
as §4, with “72” for “120”

[11] = test system: adult Bemisia tabaci (Gennadius); test: Joint toxicity of I-72 + pyraclostrobin, cotton seedling spraying, Example 83, Table 83; conditions: 72 h
Procedure: as §1
The corrected mortality rate was calculated using the Abbott's formula, and statistical analysis was performed with the DPS data processing software to obtain the toxicity regression equation and LC50 value of each single test pesticide and each mixture of different ratios.

[12] = test system: adult Tetranychus cinnabarinus (Boisduval); test: Joint toxicity of I-72 + pyridaben, Example 84, Table 84; conditions: 72 h
Procedure: Test target: adult Tetranychus cinnabarinus (Boisduval), a sensitive strain reared indoors.
as §1
as §5, with “adult Tetranychus cinnabarinus (Boisduval) was determined” for “adult Tetranychus urticae Koch was determined”, “adult Tetranychus cinnabarinus of uniform” for “adult Tetranychus urticae Koch of uniform”
as §4, with “needed.” for “needed. The number of dead and live insects was investigated 120 hours later.”, “effect,” for “effect (the same”, “1.” for “1).”

[13] = test system: Bemisia tabaci (Gennadius) nymphs; test: Joint toxicity of I-72 + pyrifluquinazon, Example 77, Table 77; conditions: A = compound I-72, B = pyrifluquinazon; cotton leaf-disk spraying; 96 hours
Procedure: (§9) Test target: Bemisia tabaci (Gennadius) nymphs, a sensitive strain reared indoors.
as §1
as §6, with “neat” for “uniform”, “Bemisia tabaci (Gennadius) nymphs” for “Aphis gossypii”, “selected and made into leaf disks,” for “selected,”, “20” for “30-40”, “leaf disk.” for “leaf.”
as §4, with “96” for “120”

[14] = test system: Bemisia tabaci (Gennadius) nymphs; test: Joint toxicity of I-72 + thiacloprid, Example 71, Table 71; conditions: in Gossypium hirsutum, 96 h
Procedure: as §9, §1
as §6, with “neat” for “uniform”, “Bemisia tabaci (Gennadius) nymphs” for “Aphis gossypii”, “selected and made into leaf disks,” for “selected,”, “20” for “30-40”, “leaf disk.” for “leaf.”
as §4, with “96” for “120”

[15] = test system: Nilaparvata lugens (Stal) nymphs; test: Joint toxicity of I-72 + triflumezopyrim, Example 75, Table 75; conditions: A = compound I-72, B = triflumezopyrim; potted-seedling spraying; 72 hours
Procedure: as §7, §1, §8
as §4, with “72” for “120”

CNC(=O)/C(=N/OC)c1ccccc1CO/N=C(C)/C=C/c1c(Cl)cccc1Cl [SYP-1620]
LC50 ([1]; A = compound I-72, B = SYP-1620, 72 hours): 361.2037 µg/mL

C[C@]1(COC(=O)C2CC2)[C@@H]2C[C@H](O)[C@@]3(C)Oc4cc(-c5cccnc5)oc(=O)c4[C@H](O)[C@@H]3[C@@]2(C)CC[C@@H]1OC(=O)C1CC1 [afidopyropen]
LC50 [2]: 2.8361 µg/mL

CCn1nc(C)cc1/C(OC(=O)C(C)(C)C)=C(/C#N)c1ccc(C(C)(C)C)cc1 [cyetpyrafen]
LC50 [3]: 0.6118 µg/mL

N#CCNC(=O)c1cnccc1C(F)(F)F [flonicamid]
LC50 [4]: 50.8013 µg/mL | LC50 [5]: 2.3954 µg/mL

N#Cc1c[nH]cc1-c1cccc2c1OC(F)(F)O2 [fludioxonil]
LC50 ([1]; Agrotis ipsilon, A = compound I-72, B = fludioxonil, 72 hours, read-out: LC50): 391 µg/mL

O=[N+]([O-])NC1=NCCN1Cc1ccc(Cl)nc1 [imidacloprid]
LC50 [6]: 4.9 µg/mL

COCC(=O)N(c1c(C)cccc1C)[C@H](C)C(=O)OC [metalaxyl-M]
LC50 [7]: 401.2975 µg/mL (≈ 1440 µM)

CN1CCC[C@H]1c1cccnc1 [nicotine]
LC50 [8]: 8.19 µg/mL

CC1=NNC(=O)N(/N=C/c2cccnc2)C1 [pymetrozine]
LC50 [9]: 5.51 µg/mL | LC50 [10]: 300 µg/mL

COC(=O)N(OC)c1ccccc1COc1ccn(-c2ccc(Cl)cc2)n1 [pyraclostrobin]
LC50 [11]: 424 µg/mL

CC(C)(C)c1ccc(CSc2cnn(C(C)(C)C)c(=O)c2Cl)cc1 [pyridaben]
LC50 [12]: 10.8 µg/mL

CC(=O)N1C(=O)N(NCc2cccnc2)Cc2cc(C(F)(C(F)(F)F)C(F)(F)F)ccc21 [pyrifluquinazon]
LC50 [13]: 10.6205 µg/mL

N#C/N=C1\SCCN1Cc1ccc(Cl)nc1 [thiacloprid]
LC50 [14]: 6.26 µg/mL

O=c1c(-c2cccc(C(F)(F)F)c2)c([O-])[n+](Cc2cncnc2)c2ccccn12 [triflumezopyrim]
LC50 [15]: 0.8838 µg/mL

— patent publication US20260198495A1, “BINARY INSECTICIDE COMPOSITION AND USE THEREOF” (SHENYANG SINOCHEM AGROCHEMICALS R & D CO., LTD., priority 2022, published 2026)
